From patent publication US20240317712A1, “[…] DERIVATIVES AS INHIBITORS OF […]-PEPTIDE CYCLOTRANSFERASE AND […]-PEPTIDE CYCLOTRANSFERASE LIKE PROTEIN” (Boehringer Ingelheim International GmbH, priority 2023, published 2024)

Legend:
QPCTL = biological target: T1, QPCTL (Homo sapiens, UniProt Q9NXS2); assay: Assay A: biochemical QPCTL activity assay (MALDI-TOF MS, CD47 peptide substrate); conditions: 0.5 nM enzyme, 10 μM CD47 peptide substrate; read-out: Inhibition of QPCTL: IC50
T1 construct: made in house
Description: (§1) QPCT or QPCTL dependent conversion of N-terminal glutamine to pyroglutamate of CD47 was monitored via MALDI-TOF MS. Test compounds were dissolved in 100% DMSO and serially diluted into clear 1,536-well microtiter plates. Enzymatic reactions were set up in assay buffer containing 20 mM Tris pH 7.5, 0.1 mM TCEP, 0.01% BSA, and 0.001% Tween20. […] The plates were incubated for 10 min in a humidified incubator at 24° C. Subsequently, 2.5 µL of CD47 peptide substrate surrogate (^19[…]^33) was added to each well (final concentration: 10 μM for QPCTL/20 μM for QPCT). The plates were mixed for 30 sec at 1,000 rpm and subsequently incubated for 40 min in a humidified incubator at 24° C. […] The plates were sealed with an adhesive foil, mixed for 30 s at 1,000 rpm and stored at room temperature until preparation of the MALDI target plates. MALDI target plates were prepared as described previously. […] QPCT or QPCTL activity was monitored by calculating the ratio between product and internal standard signals followed by normalization to high (100% activity) and low (0% activity) controls. Determination of compound potencies was obtained by fitting the dose-response data to a four-parameter logistical equation.

QPCT = biological target: T2, QPCT (Homo sapiens, UniProt Q16769); assay: Assay A: biochemical QPCT activity assay (MALDI-TOF MS, CD47 peptide substrate); conditions: 0.5 nM enzyme, 20 μM CD47 peptide substrate; read-out: Inhibition of QPCT: IC50
T2 construct: purchased Origine (so in the source)
Description: as §1

[1] = tested on: SIRPα signalling induced by Raji cells; assay: Assay B: SIRPα signalling assay using Raji cells; type: cell-based; conditions: Homo sapiens, 48 h compound incubation, Jurkat PathHunter SIRPaV1 reporter cells, read-out: Inhibition of SIRPα signalling induced by Raji cells: IC50
Description: (§2) Two cell types are independently used: the Raji cell line (lymphoblast-like human cell line derived from B lymphocytes from a Burkitt's lymphoma patient in 1963) and A549 cells (adenocarcinoma human alveolar basal epithelial cells).
(§3) Test compounds were dissolved in 100% DMSO and serially diluted into a white 384-well microtiter cell culture plate (PerkinElmer #60076780 in case of Raji assay; PDL-coated plates Greiner #781945 in case of A549 assay), 5000 Raji cells (ATCC #CC86) or 5000 A549 cells (ATCC #CCL-185) in Assay Complete Cell Plating reagent 30 (DiscoverX 93-0563R30B) were added per well. The assay plate was incubated for 48 h at 37° C., 95% humidity and 5% CO2. 15000 reporter cells (Jurkat PathHunter SIRPaV1, DiscoverX #93-1135C19) were added to each well, and the plate was incubated for 5 h at 37° C., 95% humidity and 5% CO2. Bioassay reagent 1 of the PathHunter Bioassay detection kit (DiscoverX 93-0001) was added to each well of the plate using a multichannel pipette followed by a 15 min incubation at room temperature. Afterwards bioassay reagent 2 was added followed by 60 min incubation at room temperature (incubation in the dark). The analysis of the data was performed using the luminescence signal generated by beta-galactosidase in the PathHunter reporter cell line. The luminescence measurement was done using a Pherastar Multi-Mode Reader. Dose-response curves & IC50 data were calculated with 4-parameter sigmoidal dose response formula.

[2] = tested on: SIRPα signalling induced by A549 cells; assay: Assay B: SIRPα signalling assay using A549 cells; type: cell-based; conditions: Homo sapiens, 48 h compound incubation, Jurkat PathHunter SIRPaV1 reporter cells, read-out: Inhibition of SIRPα signalling induced by A549 cells: IC50
Description: as §2, §3

[3] = Assay C: Permeability in CACO-2 cells; type: in vitro ADME; conditions: human, pH 7.2; for efflux ratio: Caco-2, permeability B−A/permeability A−B; for Papp A→B: Caco-2, apical to basolateral
Description: Caco-2 cells (1-2×10^5 cells/1 cm^2 area) are seeded on filter inserts (Costar transwell polycarbonate or PET filters, 0.4 μm pore size) and cultured (DMEM) for 10 to 25 days. Compounds are dissolved in appropriate solvent (like DMSO, 1-20 mM stock solutions). […] The transport solution (TL) is applied to the apical or basolateral donor side for measuring A-B or B-A permeability (3 filter replicates), respectively. Samples are collected at the start and end of experiment from the donor and at various time intervals for up to 2 hours also from the receiver side for concentration measurement by HPLC-MS/MS or scintillation counting. Sampled receiver volumes are replaced with fresh receiver solution.
Efflux ratio (ER)=permeability B−A/permeability A−B

T2 sequence (Q16769 29-361): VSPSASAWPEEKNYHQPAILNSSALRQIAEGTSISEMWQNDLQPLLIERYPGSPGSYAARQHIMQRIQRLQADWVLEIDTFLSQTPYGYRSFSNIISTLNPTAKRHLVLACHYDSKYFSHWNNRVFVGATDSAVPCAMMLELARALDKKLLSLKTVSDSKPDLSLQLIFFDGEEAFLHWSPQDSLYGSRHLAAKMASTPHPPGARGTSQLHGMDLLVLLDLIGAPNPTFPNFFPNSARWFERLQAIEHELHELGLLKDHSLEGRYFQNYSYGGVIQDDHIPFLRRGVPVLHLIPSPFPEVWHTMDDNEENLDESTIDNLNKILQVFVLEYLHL
T1 sequence (Q9NXS2 whole entry): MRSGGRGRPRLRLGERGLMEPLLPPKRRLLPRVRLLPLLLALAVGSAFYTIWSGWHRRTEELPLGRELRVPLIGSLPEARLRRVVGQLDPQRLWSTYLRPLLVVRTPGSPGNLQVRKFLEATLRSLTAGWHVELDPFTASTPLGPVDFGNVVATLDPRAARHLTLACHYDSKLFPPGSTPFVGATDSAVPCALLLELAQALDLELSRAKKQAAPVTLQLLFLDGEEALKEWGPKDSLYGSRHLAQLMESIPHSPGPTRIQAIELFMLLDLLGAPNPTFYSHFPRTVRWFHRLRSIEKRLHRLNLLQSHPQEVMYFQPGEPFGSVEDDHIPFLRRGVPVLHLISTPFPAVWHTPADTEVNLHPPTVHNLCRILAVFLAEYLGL

Cn1cnnc1C1CCN(c2c(C#N)cc(F)cc2-c2cnc3nn(C(C)(C)C)c(Cl)c3c2)CC1 [Example 26]
IC50 (QPCTL): 1 nM | IC50 (QPCT): 1 nM | IC50 [1]: 16 nM | IC50 [2]: 8 nM | efflux ratio [3]: 3.9 | Papp A→B [3]: 14 ×10⁻⁶ cm/s

Cn1cnnc1C1(F)CCN(c2c(-c3cnc4nn(C(C)(C)C)cc4c3)ccc(Cl)c2C#N)CC1 [Example 27]
IC50 (QPCTL): 1 nM | IC50 (QPCT): 1 nM | IC50 [1]: 19 nM | IC50 [2]: 7 nM | efflux ratio [3]: 19.1 | Papp A→B [3]: 2.2 ×10⁻⁶ cm/s

Cn1cnnc1C1(F)CCN(c2c(-c3ccc(F)nc3)ccc(Cl)c2C#N)CC1 [Example 28]
IC50 (QPCTL): 2 nM | IC50 (QPCT): 2 nM | IC50 [1]: 93 nM | IC50 [2]: 12 nM | efflux ratio [3]: 1.7 | Papp A→B [3]: 34 ×10⁻⁶ cm/s

Cn1cnnc1C1(F)CCN(c2c(-c3ccc(F)nc3)ccc(C(F)(F)F)c2C#N)CC1 [Example 29]
IC50 (QPCTL): 1 nM | IC50 (QPCT): 2 nM | IC50 [1]: 78 nM | IC50 [2]: 19 nM | efflux ratio [3]: 1.4 | Papp A→B [3]: 53 ×10⁻⁶ cm/s

Cn1cnnc1C1(F)CCN(c2c(-c3cnc4nn(C(C)(C)C)cc4c3)ccc(C(F)(F)F)c2C#N)CC1 [Example 30]
IC50 (QPCTL): 1 nM | IC50 (QPCT): 1 nM | IC50 [1]: 19 nM | IC50 [2]: 8 nM | efflux ratio [3]: 22.9 | Papp A→B [3]: 1.7 ×10⁻⁶ cm/s

Cn1cnnc1C1CCN(c2c(-c3ccc(F)nc3)ccc(C(F)(F)F)c2C#N)CC1 [Example 31]
IC50 (QPCTL): 1 nM | IC50 (QPCT): 4 nM | IC50 [1]: 77 nM | IC50 [2]: 19 nM | efflux ratio [3]: 3.5 | Papp A→B [3]: 22 ×10⁻⁶ cm/s

Cn1cnnc1C1CCN(c2c(-c3cnc4nn(C(C)(C)C)cc4c3)ccc(C(F)(F)F)c2C#N)CC1 [Example 32]
IC50 (QPCTL): 2 nM | IC50 (QPCT): 2 nM | IC50 [1]: 70 nM | IC50 [2]: 36 nM | efflux ratio [3]: 146 | Papp A→B [3]: 0.2 ×10⁻⁶ cm/s

COc1ccc(-c2cnc3nn(C(C)(C)C)cc3c2)c(N2CCC(F)(c3nncn3C)CC2)c1C#N [Example 33]
IC50 (QPCTL): 1 nM | IC50 (QPCT): 1 nM | IC50 [1]: 20 nM | IC50 [2]: 11 nM | efflux ratio [3]: 51.9 | Papp A→B [3]: 0.8 ×10⁻⁶ cm/s

Cn1cnnc1C1(F)CCN(c2c(C#N)cc(C(F)(F)F)cc2-c2cnc3nc(C4(C)CC4)nn3c2)CC1 [Example 35]
IC50 (QPCTL): 1 nM | IC50 (QPCT): 2 nM | IC50 [1]: 16 nM | IC50 [2]: 6 nM | efflux ratio [3]: 17.1 | Papp A→B [3]: 4.8 ×10⁻⁶ cm/s

Cn1cnnc1C1(F)CCN(c2c(C#N)cc(C(F)(F)F)cc2-c2cnc3nn(C(F)(F)F)cc3c2)CC1 [Example 36]
IC50 (QPCTL): 1 nM | IC50 (QPCT): 1 nM | IC50 [1]: 8 nM | IC50 [2]: 9 nM | efflux ratio [3]: 6.7 | Papp A→B [3]: 5.7 ×10⁻⁶ cm/s
